Drawing on patent US20250215030A1, “STAT MODULATORS AND USES THEREOF” (Recludix Pharma, Inc., priority 2022, published 2025), this text covers IC50 for twelve molecules.

SMILES strings stand for the structures.

The target in one experiment is T1, pSTAT3 (pY705-STAT3) (Homo sapiens, UniProt P40763).
T1 construct: host or cells: cryopreserved PBMC
T1 sequence (P40763 whole entry): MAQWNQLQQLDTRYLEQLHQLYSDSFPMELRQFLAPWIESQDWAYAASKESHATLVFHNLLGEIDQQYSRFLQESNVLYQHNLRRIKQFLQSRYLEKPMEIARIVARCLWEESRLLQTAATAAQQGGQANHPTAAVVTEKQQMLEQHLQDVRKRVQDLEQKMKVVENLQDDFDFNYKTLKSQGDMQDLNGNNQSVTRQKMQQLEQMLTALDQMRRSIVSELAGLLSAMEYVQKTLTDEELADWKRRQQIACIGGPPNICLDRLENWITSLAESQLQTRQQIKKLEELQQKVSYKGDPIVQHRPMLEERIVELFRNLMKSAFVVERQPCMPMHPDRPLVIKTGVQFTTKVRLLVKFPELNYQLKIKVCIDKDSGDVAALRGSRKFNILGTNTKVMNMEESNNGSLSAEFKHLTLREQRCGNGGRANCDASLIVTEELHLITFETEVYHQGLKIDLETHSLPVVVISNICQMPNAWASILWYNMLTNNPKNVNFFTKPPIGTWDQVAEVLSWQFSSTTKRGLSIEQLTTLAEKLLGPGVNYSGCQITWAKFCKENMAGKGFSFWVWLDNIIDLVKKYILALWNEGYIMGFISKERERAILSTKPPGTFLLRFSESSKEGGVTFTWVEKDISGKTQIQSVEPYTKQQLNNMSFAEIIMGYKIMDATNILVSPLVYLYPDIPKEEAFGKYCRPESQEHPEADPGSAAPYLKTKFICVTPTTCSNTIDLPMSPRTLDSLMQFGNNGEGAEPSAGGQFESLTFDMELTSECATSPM
The experiment in a line: MSD-pSTAT-PBMC Assay (pSTAT3, IL-6 stimulated). The experiment is classed as cell-based.
Conditions: not given
The gist of the method: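 Phospho-STAT levels captured on anti-STAT3 or anti-STAT6 plates and detected with anti-pY705 or anti-pY641 antibodies (MSD read-out). Cryopreserved human PBMCs received compound for 3 h before a 10 min pulse of IL-6 (10 ng/mL, STAT3) or IL-4 (1 ng/mL, STAT6). IC50 fitted after unstimulated-background subtraction and DMSO normalization.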
Regarding `CCCOC(=O)[C@H](C)NP(=O)(Oc1ccccc1)C(F)c1ccc2sc(C(=O)N[C@H]3C[C@@H]4C[C@@H]4C[C@H]4CC[C@@H](C(=O)N5CC(c6cncnc6N6CCC6)C5)N4C3=O)cc2c1` (stereo partly drawn) [Compound 412, propyl(((S)-(2-(((3S,6S,7aS,8aR,9aR)-3-(3-(4-(azetidin-1-yl)pyrimidin-5-yl)azetidine-1-carbonyl)-5-oxodecahydro-1H-cyclopropa[d]pyrrolo[1,2-a]azocin-6-yl)carbamoyl)benzo[b]thiophen-5-yl)fluoromethyl)(phenoxy)phosphoryl)-L-alaninate], the IC50 is less than 100 nM.
Molecule `CCCOC(=O)[C@H](CC)NP(=O)(Oc1ccccc1)C(F)c1ccc2sc(C(=O)N[C@H]3C[C@@H]4C[C@@H]4C[C@H]4CC[C@@H](C(=O)N5CC(c6cnccc6C)C5)N4C3=O)cc2c1` (stereo partly drawn) [Compound 283, propyl(2S)-2-(((fluoro(2-(((3S,6S,7aS,8aR,9aR)-3-(3-(4-methylpyridin-3-yl)azetidine-1-carbonyl)-5-oxodecahydro-1H-cyclopropa[d]pyrrolo[1,2-a]azocin-6-yl)carbamoyl)benzo[b]thiophen-5-yl)methyl)(phenoxy)phosphoryl)amino)butanoate] came in with an IC50 of less than 100 nM.
Still for that read-out and setting: the value for `CCCOC(=O)[C@H](C)NP(=O)(Oc1ccccc1)C(F)c1ccc2sc(C(=O)N[C@H]3C[C@@H]4C[C@@H]4C[C@H]4CC[C@@H](C(=O)N[C@H]5CN(C(N)=O)C[C@@H]5F)N4C3=O)cc2c1` (stereo partly drawn) [Compound 382, propyl(((2-(((3S,6S,7aS,8aR,9aR)-3-(((3S,4S)-1-carbamoyl-4-fluoropyrrolidin-3-yl)carbamoyl)-5-oxodecahydro-1H-cyclopropa[d]pyrrolo[1,2-a]azocin-6-yl)carbamoyl)benzo[b]thiophen-5-yl)fluoromethyl)(phenoxy)phosphoryl)-L-alaninate] was 100 to 1000 nM.
The same measure, in the same setting: with `CCCOC(=O)[C@H](C)NP(=O)(Oc1ccccc1)[C@@H](F)c1ccc2sc(C(=O)N[C@H]3C[C@H]4C[C@H]4C[C@H]4CC[C@@H](C(=O)N5CC(c6cnccc6N6CC[C@H]6COC)C5)N4C3=O)cc2c1` (stereo in doubt) [Compound 417, propyl(((R)-fluoro(2-(((3S,6S,7aS,8aR,9aR)-3-(3-(4-((S)-2-(methoxymethyl)azetidin-1-yl)pyridin-3-yl)azetidine-1-carbonyl)-5-oxodecahydro-1H-cyclopropa[d]pyrrolo[1,2-a]azocin-6-yl)carbamoyl)benzo[b]thiophen-5-yl)methyl)(phenoxy)phosphoryl)-L-alaninate] the figure was less than 100 nM.

Staying with this experiment, now noted: PBMC, compound 3 hrs, then 10 ng/mL IL-6 for 10 min; MSD pY705-STAT3; read-out: pSTAT3.
As for `CC(C)(C)C(=O)SCCOP(=O)(OCCSC(=O)C(C)(C)C)C(F)(F)c1ccc2ccc(C(=O)N[C@H]3C[C@@H]4C[C@@H]4C[C@H]4CC[C@@H](C(=O)N5CC(n6ccnc6)C5)N4C3=O)cc2c1` [Compound 221, S,S′-(((((7-(((3S,6S,7aS, 8aR,9aR)-3-(3-(1H-imidazol-1-yl)azetidine-1-carbonyl)-5-oxodecahydro-1H-cyclopropa[d]pyrrolo[1,2-a]azocin-6-yl)carbamoyl)naphthalen-2-yl)difluoromethyl)phosphoryl)bis(oxy))bis(ethane-2,1-diyl)) bis(2,2-dimethyl-propanethioate)], the IC50 is less than 100 nM.
Same read-out and setting: the value for `CCCOC(=O)[C@H](C)NP(=O)(Oc1ccccc1)C(F)c1ccc2sc(C(=O)N[C@H]3C[C@@H]4C[C@@H]4C[C@H]4CC[C@@H](C(=O)N5CC(c6cnccc6C)C5)N4C3=O)cc2c1` (stereo partly drawn) [Compound 307, propyl ((fluoro(2-(((3S,6S,7aS,8aR,9aR)-3-(3-(4-methylpyridin-3-yl)azetidine-1-carbonyl)-5-oxodecahydro-1H-cyclopropa[d]pyrrolo[1,2-a]azocin-6-yl)carbamoyl)benzo[b]thiophen-5-yl)methyl)(phenoxy)phosphoryl)-L-alaninate] was less than 100 nM.
On the same count and under the same terms, the value for `CC(C)OC(=O)[C@H](C)N[P@@](=O)(Cc1ccc2sc(C(=O)N[C@H]3C[C@@H]4C[C@@H]4C[C@H]4CC[C@@H](C(=O)N5CC(C(=O)N6CCOCC6)C5)N4C3=O)cc2c1)Oc1ccccc1` (single isomer, unassigned) [Example 5] was 1000 to 3000 nM.
`CCOC(=O)[C@H](C)NP(=O)(Oc1ccccc1)C(F)(F)c1ccc2sc(C(=O)N[C@H]3C[C@@H]4C[C@@H]4C[C@H]4CC[C@@H](C(=O)N5CC(C(=O)N6CCOCC6)C5)N4C3=O)cc2c1` (stereo partly drawn) [Compound 192, ethyl ((difluoro(2-(((3S,6S,7aS, 8aR,9aR)-3-(3-(morpholine-4-carbonyl)azetidine-1-carbonyl)-5-oxodecahydro-1H-cyclopropa[d]pyrrolo[1,2-a]azocin-6-yl)carbamoyl)benzo[b]thiophen-5-yl)methyl) (phenoxy)phosphoryl)-L-alaninate]: the IC50 is more than 3000 nM.
On to `CC(C)OC(=O)[C@H](C)NP(=O)(Oc1ccccc1)C(F)c1ccc2sc(C(=O)N[C@H]3C[C@@H]4C[C@@H]4C[C@H]4CC[C@@H](C(=O)N5CC(C(=O)N6CCOCC6)C5)N4C3=O)cc2c1` (stereo partly drawn) [Compound 153, isopropyl ((fluoro(2-(((3S,6S,7aS, 8aR,9aR)-3-(3-(morpholine-4-carbonyl)azetidine-1-carbonyl)-5-oxodecahydro-1H-cyclopropa[d]pyrrolo[1,2-a]azocin-6-yl)carbamoyl)benzo[b]thiophen-5-yl)methyl)phenoxy) phosphoryl)-L-alaninate], for which the IC50 was in the range of 100 to 1000 nM.
The same measure, in the same setting: the value for `O=C(OCOP(=O)(Cc1ccc2sc(C(=O)N[C@H]3C[C@@H]4C[C@@H]4C[C@H]4CC[C@@H](C(=O)N5CC(C(=O)N6CCOCC6)C5)N4C3=O)cc2c1)OCOC(=O)OC1CCOCC1)OC1CCOCC1` [Compound 130, ((((2-(((3S,6S,7aS, 8aR,9aR)-3-(3-(morpholine-4-carbonyl)azetidine-1-carbonyl)-5-oxodecahydro-1H-cyclopropa[d]pyrrolo[1,2-a]azocin-6-yl)carbamoyl)benzo[b]thiophen-5-yl)methyl)phosphoryl)bis (oxy))bis (methylene) bis(tetrahydro-2H-pyran-4-yl) bis(carbonate)] was more than 3000 nM; that for `Cn1cnnc1C1CN(C(=O)[C@@H]2CC[C@@H]3C[C@@H]4C[C@@H]4C[C@H](NC(=O)c4cc5cc(C(F)(F)P(=O)(OCCSC(=O)C(C)(C)C)OCCSC(=O)C(C)(C)C)ccc5s4)C(=O)N32)C1` [Compound 201, S,S′-((((difluoro(2-(((3S,6S,7aR, 8aS,9aR)-3-(3-(4-methyl-4H-1,2,4-triazol-3-yl)azetidine-1-carbonyl)-5-oxodecahydro-1H-cyclopropa[d]pyrrolo[1,2-a]azocin-6-yl)carbamoyl)benzo[b]thiophen-5-yl)methyl)phosphoryl)bis(oxy))bis(ethane-2,1-diyl)) bis(2,2-dimethyl-propanethioate)] was less than 100 nM; that for `CC(C)OC(=O)[C@H](C)NP(=O)(Cc1ccc2sc(C(=O)N[C@H]3C[C@@H]4C[C@@H]4C[C@H]4CC[C@@H](C(=O)N5CC(C(=O)N6CCOCC6)C5)N4C3=O)cc2c1)Oc1ccccc1Cl` (stereo partly drawn) [Compound 191, isopropyl ((2-chlorophenoxy) ((2-(((3S,6S, 7aS,8aR,9aR)-3-(3-(morpholine-4-carbonyl)azetidine-1-carbonyl)-5-oxodecahydro-1H-cyclopropa[d]pyrrolo[1,2-a]azocin-6-yl)carbamoyl)benzo[b]thiophen-5-yl)methyl)phosphoryl)-L-alaninate] was 100 to 1000 nM.
